The text below walks through data of publication PMC5955799 (ACS chemical neuroscience, 2018).

The structures appear in SMILES notation. Numbered stars: 1 amine (or outer) side, 2 acyl side, 3 side chain; on linkers, the order of the positions; unused ones are H or OH. Square brackets hold non-standard residues; d marks the D form. Peptide text beside a SMILES is read from it. X1 = C#Cc1cccc(-c2cn(C[C@H](N[*:1])C(=O)[*:2])nn2)c1; X2 = C#Cc1cccc(-c2cnnn2C[C@H](N[*:1])C(=O)[*:2])c1

The target in one test is mMC5R (Mus musculus, UniProt P41149). Briefly: AlphaScreen cAMP agonist assay in HEK293 cells stably expressing mMC5R. Particulars: for Fold diff (mMC5R): decrease in agonist potency compared to peptide 1. In general terms: In Alpha technology, singlet oxygen from a donor bead excites a nearby acceptor bead.
The next test concerns the target mMC1R (Mus musculus, UniProt Q01727). Nature of the test: AlphaScreen cAMP agonist assay in HEK293 cells stably expressing mMC1R. Conditions: for Fold diff (mMC1R): decrease in agonist potency compared to peptide 1.
The target of another test is mMC3R (Mus musculus, UniProt P33033). Nature of the test: AlphaScreen cAMP agonist assay in HEK293 cells stably expressing mMC3R. Particulars: for Fold diff (mMC3R): decrease in agonist potency compared to peptide 1.
The target in another test is mMC4R (Mus musculus, UniProt P56450). Nature of the test: AlphaScreen cAMP agonist assay in HEK293 cells stably expressing mMC4R. Conditions: for Fold diff (mMC4R): decrease in agonist potency compared to peptide 1.
Chain of mMC4R (P56450 whole entry): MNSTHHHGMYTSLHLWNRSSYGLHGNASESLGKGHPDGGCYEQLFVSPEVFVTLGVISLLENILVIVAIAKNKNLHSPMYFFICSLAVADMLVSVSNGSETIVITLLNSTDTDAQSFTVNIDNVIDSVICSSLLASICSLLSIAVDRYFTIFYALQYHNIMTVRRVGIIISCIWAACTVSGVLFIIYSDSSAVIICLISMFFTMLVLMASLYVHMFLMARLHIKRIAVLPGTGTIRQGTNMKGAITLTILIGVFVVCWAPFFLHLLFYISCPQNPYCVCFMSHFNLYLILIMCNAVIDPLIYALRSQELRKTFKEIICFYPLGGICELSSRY

Chain of mMC5R (P41149 whole entry): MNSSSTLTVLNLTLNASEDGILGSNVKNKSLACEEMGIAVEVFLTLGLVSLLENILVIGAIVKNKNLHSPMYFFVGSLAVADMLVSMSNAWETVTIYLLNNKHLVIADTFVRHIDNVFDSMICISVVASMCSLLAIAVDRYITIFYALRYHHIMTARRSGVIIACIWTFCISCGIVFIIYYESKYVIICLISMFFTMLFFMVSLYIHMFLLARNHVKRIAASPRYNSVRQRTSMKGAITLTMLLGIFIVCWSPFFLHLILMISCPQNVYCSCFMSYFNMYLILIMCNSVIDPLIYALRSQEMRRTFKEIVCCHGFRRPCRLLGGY
Chain of mMC3R (P33033 whole entry): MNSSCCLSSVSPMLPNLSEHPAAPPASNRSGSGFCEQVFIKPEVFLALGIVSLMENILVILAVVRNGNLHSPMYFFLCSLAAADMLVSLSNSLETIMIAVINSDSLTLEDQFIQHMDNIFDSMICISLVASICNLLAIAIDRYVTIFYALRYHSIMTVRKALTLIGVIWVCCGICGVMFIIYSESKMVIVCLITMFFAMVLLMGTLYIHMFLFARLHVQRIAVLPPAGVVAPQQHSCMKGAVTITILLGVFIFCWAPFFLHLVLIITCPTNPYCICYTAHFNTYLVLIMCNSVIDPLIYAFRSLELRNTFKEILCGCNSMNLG
Chain of mMC1R (Q01727 whole entry): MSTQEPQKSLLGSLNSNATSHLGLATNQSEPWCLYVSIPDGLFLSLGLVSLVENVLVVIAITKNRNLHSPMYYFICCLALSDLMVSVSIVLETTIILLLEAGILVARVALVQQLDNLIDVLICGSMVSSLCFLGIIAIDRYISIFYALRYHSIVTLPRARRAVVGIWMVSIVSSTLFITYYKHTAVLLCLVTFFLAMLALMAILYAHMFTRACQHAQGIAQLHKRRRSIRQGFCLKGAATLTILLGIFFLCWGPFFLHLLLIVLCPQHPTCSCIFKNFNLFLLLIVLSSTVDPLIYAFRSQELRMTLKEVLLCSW

On to `C[C@@H]1NC(=O)[C@H](CC(N)=O)NC(=O)[C@H](Cc2c[nH]c3ccccc23)NC(=O)[C@H](CCCN=C(N)N)NC(=O)[C@@H](Cc2ccccc2)NC(=O)[C@H](Cc2cnc[nH]2)NC(=O)[C@@H](NC(=O)[C@@H](N)Cc2ccc(O)cc2)CSSC[C@@H](C(=O)N[C@@H](Cc2ccc(O)cc2)C(N)=O)NC(=O)[C@H](Cc2ccccc2)NC1=O` [Peptide 1, Tyr-c[Cys-His-DPhe-Arg-Trp-Asn-Ala-Phe-Cys]-Tyr-NH2, reference compound], for which the EC50 was 2.4 ± 0.31 nM at mMC5R, 0.14 ± 0.01 nM on mMC1R, 2.2 ± 0.58 nM on mMC3R and 0.43 ± 0.13 nM on mMC4R.
For the compound `C#Cc1cccc(-c2cn(C[C@H](NC(=O)[C@H](Cc3ccccc3)NC(=O)[C@H](C)NC(=O)[C@H](CC(N)=O)NC(=O)[C@H](Cc3c[nH]c4ccccc34)NC(=O)[C@H](CCCNC(=N)N)NC(=O)[C@@H](Cc3ccccc3)NC(=O)[C@H](Cc3c[nH]cn3)NC(=O)[C@H](Cn3cc(-c4cccc(C#C)c4)nn3)NC(=O)[C@@H](N)Cc3ccc(O)cc3)C(=O)N[C@@H](Cc3ccc(O)cc3)C(N)=O)nn2)c1` [Peptide 9] (H-Y[X1]H[dF]RWNAF[X1]Y-NH2), at mMC5R, a half-maximal response (EC50) required 294 ± 4.8 nM and the “Fold diff (mMC5R)” value stood at 122 fold. Further, at mMC1R, it took 802 ± 227 nM to reach a half-maximal effect (EC50) and the “Fold diff (mMC1R)” value is 5728 fold. Also, at mMC3R, the midpoint of the response, the EC50, lay at 1460 ± 245 nM and the “Fold diff (mMC3R)” value was determined as 665 fold. For the same compound, at mMC4R, it took 1520 ± 328 nM to reach a half-maximal effect (EC50) and the “Fold diff (mMC4R)” value is 3540 fold.
Take `C#Cc1cccc(-c2cnnn2C[C@H](NC(=O)[C@H](Cc2ccccc2)NC(=O)[C@H](C)NC(=O)[C@H](CC(N)=O)NC(=O)[C@H](Cc2c[nH]c3ccccc23)NC(=O)[C@H](CCCNC(=N)N)NC(=O)[C@@H](Cc2ccccc2)NC(=O)[C@H](Cc2c[nH]cn2)NC(=O)[C@H](Cn2nncc2-c2cccc(C#C)c2)NC(=O)[C@@H](N)Cc2ccc(O)cc2)C(=O)N[C@@H](Cc2ccc(O)cc2)C(N)=O)c1` [Peptide 12] (H-Y[X2]H[dF]RWNAF[X2]Y-NH2): on mMC5R, the concentration giving a half-maximal response (EC50) is 107 ± 17 nM and the “Fold diff (mMC5R)” value amounted to 45 fold. Also, at mMC1R, the response was half-maximal at 116 ± 40 nM (EC50) and the “Fold diff (mMC1R)” value was found to be 829 fold. Moreover, on mMC3R, it took 404 ± 52 nM to reach a half-maximal effect (EC50) and the “Fold diff (mMC3R)” value amounted to 184 fold. At mMC4R, the EC50 was 142 ± 30 nM and the “Fold diff (mMC4R)” value is on record as 330 fold.

In general, EC50 refers to the midpoint of the concentration-response curve. The low end stands for a more potent agent, the high end for a less potent agent.
